Tested on: cos-7 cells
Assay: DNA transfection: luciferase expression relative to Lipofectamine 2000
Format: cell-based
Settings: 300 ng Luciferase DNA per well, luciferase assay after 48 hours
Protocol: 14,000 cos-7 cells (ATCC, Manassas, Va.) were seeded into each well of a solid white or clear 96 well plate (Corning-Costar, Kennebunk, Me.) and allowed to attached overnight in growth medium, composed of: 500 ml phenol red minus DMEM, 50 ml heat inactivated FBS, 5 ml penicillin/streptomycin (Invitrogen, Carlsbad, Calif.).
A small liquot of lipid was tranferred to an Eppendorf tube. Based on the mass of the lipid in the tube, sterile 25 mM sodium acetate buffer was added to each tube to yield a concentration of 60 mg/ml. The resulting mixture was vortexed for approximately 20 minutes until the lipid was fully dissolved. DNA was prepared based on 300 ng DNA per well of a 96-well plate. 291 μg of Lc DNA was dissolved in 9210 μl of 25 mM sodium acetate buffer. Aliquots of 30 μl of DNA solution were added to each well expect for the last column which was reserved for the Lipo2000 standard. For the last column of the plate, 61 μg of DNA was added to 1940 μl Optimem. 150 μl of media/Optimem was added to each well of plates. 50 μl of lipid solution was aliquoted into wells of robot plate. The following amounts were aliquoted to obtain the correct ratios of DNA to lipid:
In quadruplicate, 30 μl of lipid was aliquoted onto DNA in four rows for each ratio. For the Lipo2000 control (2.5 w/w ratio to DNA), 152.5 μg of Lipo sample was aliquoted into 1847.5 μl of Optimem. 30 μl of this solution was aliquoted onto DNA in the Optimem in the last columns of each plate. The plates were incubated for 15-20 minutes, and then 36.5 μl of lipid+DNA complexes was transferred into 150 μl of media/Optimem, then add to cells. The media was aspirated off the cells, and 105 μl of the lipid/DNA/media/Optimem solution was added to the cells. The luciferase assay was performed after 48 hours.
Luminescence was analyzed using bright-glo assay kits (Promega). Briefly, 100 μl of bright-glo solution was added to each well of the microtiter plate containing media and cells. Luminescence was measured using a Mithras Luminometer (Berthold, Oak Ridge, Tenn.). In some cases, a neutral density filter (Chroma, Brattleboro, Vt.) was used to prevent saturation of the luminometer. A standard curve for Luciferase was generated by titration of Luciferase enzyme (Promega) into growth media in white microtiter plates. Luciferase in ng per well are calculated for each of the lipids at 2.5 w/w, 5 w/w, 10 w/w, 15 w/w, 20 w/w, and 25 w/w lipid to DNA based on the standard curve.
The table below summarizes the data as a % of the luciferase activity obtained from the use of Lipofectamine 2000. The table indicates the best lipids for transfection.

Row | SMILES | Luciferase expression as a percentage of that achieved using Lipofectamine 2000 (lipid/DNA 2.5 w/w) [%] | Luciferase expression as a percentage of that achieved using Lipofectamine 2000 (lipid/DNA 5 w/w) [%] | Luciferase expression as a percentage of that achieved using Lipofectamine 2000 (lipid/DNA 10 w/w) [%] | Luciferase expression as a percentage of that achieved using Lipofectamine 2000 (lipid/DNA 15 w/w) [%] | Luciferase expression as a percentage of that achieved using Lipofectamine 2000 (lipid/DNA 20 w/w) [%] | Luciferase expression as a percentage of that achieved using Lipofectamine 2000 (lipid/DNA 25 w/w) [%]
1 | CCCCCCCCCCOC(=O)CCN(CCCOC)CCC(=O)OCCCCCCCCCC [LB1] | 0.1 | 0.1 | 0.1 | 0.1 | 0.1 | 0.2
2 | CCCCCCCCCCOC(=O)CCN(CCC(=O)OCCCCCCCCCC)CCC1OCCO1 [LB6] | 0.1 | 0.1 | 0.1 | 0.1 | 0.1 | 0.1
3 | CCCCCCCCCCOC(=O)CCN(CCC(=O)OCCCCCCCCCC)CC1COC(C)(C)O1 (stereo not drawn) [LB7] | 0.1 | 0.1 | 0.1 | 0.1 | 0.1 | 0.2
4 | CCCCCCCCCCOC(=O)CCN(CCOC)CCC(=O)OCCCCCCCCCC [LB10] | 0.1 | 0.1 | 0.1 | 0.1 | 0.1 | 0.1
5 | CCCCCCCCCCOC(=O)CCN(CCOCC)CCC(=O)OCCCCCCCCCC [LB11] | 0.1 | 0.1 | 0.1 | 0.1 | 0.1 | 0.1
6 | CCCCCCCCCCOC(=O)CCN(CCC(=O)OCCCCCCCCCC)CC(OC)OC [LB13] | 0.1 | 0.1 | 0.1 | 0.1 | 0.1 | 0.1
7 | CCCCCCCCCCOC(=O)CCN(CCC(=O)OCCCCCCCCCC)CC1CCCO1 (stereo not drawn) [LB15] | 0.1 | 0.1 | 0.1 | 0.1 | 0.1 | 0.1
8 | CCCCCCCCCCOC(=O)CCN(CCC(=O)OCCCCCCCCCC)CCc1ccc(OC)c(OC)c1 [LB17] | 0.1 | 0.1 | 0.1 | 0.1 | 0.1 | 0.1
9 | CCCCCCCCCCOC(=O)CCN(CCCO)CCC(=O)OCCCCCCCCCC [LB20] | 0.1 | 0.1 | 0.4 | 0.2 | 0.3 | 0.7

Source: patent US9006487B2, “Amine-containing lipids and uses thereof” (Massachusetts Institute of Technology, priority 2005, dated 2015)
